{
  "source": "patent US20100227858A1",
  "about": "“TRISUBSTITUTED PYRIMIDINE DERIVATIVES FOR THE TREATMENT OF PROLIFERATIVE DISEASES” (ASTRAZENECA AB, priority 2007, published 2010)",
  "data": [
    {"molecular_target": "recombinant mTOR (Homo sapiens, UniProt P42345)", "sequence (P42345 1362-2549)": "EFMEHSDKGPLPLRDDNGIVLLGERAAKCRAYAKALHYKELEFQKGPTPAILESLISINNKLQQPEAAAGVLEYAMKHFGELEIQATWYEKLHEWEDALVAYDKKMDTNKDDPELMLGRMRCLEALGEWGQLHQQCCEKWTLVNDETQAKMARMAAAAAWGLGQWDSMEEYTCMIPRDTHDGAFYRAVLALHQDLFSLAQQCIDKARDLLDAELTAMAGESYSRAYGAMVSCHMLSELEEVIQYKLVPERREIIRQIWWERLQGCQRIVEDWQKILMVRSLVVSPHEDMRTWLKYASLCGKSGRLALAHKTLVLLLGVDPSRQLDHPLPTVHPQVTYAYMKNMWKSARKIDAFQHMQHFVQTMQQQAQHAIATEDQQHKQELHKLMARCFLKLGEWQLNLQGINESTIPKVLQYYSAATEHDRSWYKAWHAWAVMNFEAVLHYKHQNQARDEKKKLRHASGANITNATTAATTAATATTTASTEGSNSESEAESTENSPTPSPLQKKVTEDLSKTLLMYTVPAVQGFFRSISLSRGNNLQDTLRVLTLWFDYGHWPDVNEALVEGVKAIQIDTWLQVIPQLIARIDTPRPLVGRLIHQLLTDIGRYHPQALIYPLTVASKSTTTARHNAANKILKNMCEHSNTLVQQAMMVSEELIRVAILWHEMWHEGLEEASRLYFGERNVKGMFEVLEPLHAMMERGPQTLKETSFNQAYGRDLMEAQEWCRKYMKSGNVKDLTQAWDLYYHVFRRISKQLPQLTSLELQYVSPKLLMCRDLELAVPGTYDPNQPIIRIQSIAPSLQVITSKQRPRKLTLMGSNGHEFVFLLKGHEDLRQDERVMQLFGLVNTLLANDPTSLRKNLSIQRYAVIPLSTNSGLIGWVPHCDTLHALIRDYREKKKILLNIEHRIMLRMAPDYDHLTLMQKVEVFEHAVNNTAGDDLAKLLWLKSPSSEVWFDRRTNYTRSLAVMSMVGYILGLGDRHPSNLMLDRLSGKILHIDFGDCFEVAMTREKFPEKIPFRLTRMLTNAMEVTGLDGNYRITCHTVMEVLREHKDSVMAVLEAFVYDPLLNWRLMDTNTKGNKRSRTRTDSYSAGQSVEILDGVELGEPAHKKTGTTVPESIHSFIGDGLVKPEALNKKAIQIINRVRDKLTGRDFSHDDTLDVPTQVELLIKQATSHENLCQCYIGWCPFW", "assay": "In vitro mTOR kinase assay, Test (a)(i) (AlphaScreen)", "type": "biochemical", "settings": "enzyme assay; values may represent the average of two or more measurements; read-out: Test (a)(i) IC50", "procedure": "(a)(i) In Vitro mTOR Kinase Assay\nThe HEK293 FLAG-tagged mTOR (1362-2549) stable cell line was routinely maintained at 37° C. with 5% CO2 up to a confluency of 70-90% in Dulbecco's modified Eagle's growth medium (DMEM; Invitrogen Limited, Paisley, UK Catalogue No. 41966-029) containing 10% heat-inactivated foetal calf serum (FCS; Sigma, Poole, Dorset, UK, Catalogue No. F0392), 1% L-glutamine (Gibco, Catalogue No. 25030-024) and 2 mg/ml Geneticin (G418 sulfate; Invitrogen Limited, UK Catalogue No. 10131-027). Following expression in the mammalian HEK293 cell line, expressed protein was purified using the FLAG epitope tag using standard purification techniques.\nA 30 μl mixture of recombinant purified mTOR enzyme, 1 μM biotinylated peptide substrate (Biotin-Ahx-[…]NH2; Bachem UK Ltd), ATP (20 μM) and a buffer solution [comprising Tris-HCl pH7.4 buffer (50 mM), EGTA (0.1 mM), bovine serum albumin (0.5 mg/mL), DTT (1.25 mM) and manganese chloride (10 mM)] was agitated at room temperature for 90 minutes.\nThese assay solutions were incubated for 2 hours at room temperature.\nPhosphorylated biotinylated peptide is formed in situ as a result of mTOR mediated phosphorylation. The phosphorylated biotinylated peptide that is associated with AlphaScreen Streptavidin donor beads forms a complex with the p70 S6 Kinase (T389) 1A5 Monoclonal Antibody that is associated with Alphascreen Protein A acceptor beads. […] Accordingly, the presence of mTOR kinase activity results in an assay signal. In the presence of an mTOR kinase inhibitor, signal strength is reduced.", "units": {"IC50": "µM"}, "values": [
      {"compound": "COc1ccc(C(=O)Nc2nc(N3CCOC[C@@H]3C)cc(N3CCOC[C@@H]3C)n2)cc1", "note": "[Example 1, N-[4,6-Bis[(3S)-3-methylmorpholin-4-yl]pyrimidin-2-yl]-4-methoxy-benzamide]", "IC50": 4.65},
      {"compound": "COc1ccc(C(=O)Nc2cc(N3CCOC[C@@H]3C)nc(N3CCOC[C@@H]3C)n2)cc1C(F)(F)F", "note": "[Example 2, N-[2,6-Bis[(3S)-3-methylmorpholin-4-yl]pyrimidin-4-yl]-4-methoxy-3-(trifluoromethyl)benzamide]", "IC50": 0.236},
      {"compound": "COc1cccc(C(=O)Nc2cc(N3CCOC[C@@H]3C)nc(N3CCOC[C@@H]3C)n2)c1", "note": "[Example 3, N-[2,6-Bis[(3S)-3-methylmorpholin-4-yl]pyrimidin-4-yl]-3-methoxy-benzamide]", "IC50": 0.234},
      {"compound": "COc1ccc(C(=O)Nc2nc(N3CCOC[C@@H]3C)cc(N3CCOC[C@@H]3C)n2)cc1C(F)(F)F", "note": "[Example 4, N-[4,6-Bis[(3S)-3-methylmorpholin-4-yl]pyrimidin-2-yl]-4-methoxy-3-(trifluoromethyl)benzamide]", "IC50": 0.442},
      {"compound": "COc1cccc(C(=O)Nc2nc(N3CCOC[C@@H]3C)cc(N3CCOC[C@@H]3C)n2)c1", "note": "[Example 5, N-[4,6-Bis[(3S)-3-methylmorpholin-4-yl]pyrimidin-2-yl]-3-methoxy-benzamide]", "IC50": 0.364},
      {"compound": "COc1ccc(C(=O)Nc2nc(N3CCOC[C@@H]3C)cc(N3CCOC[C@@H]3C)n2)cn1", "note": "[Example 6, N-[4,6-Bis[(3S)-3-methylmorpholin-4-yl]pyrimidin-2-yl]-6-methoxy-pyridine-3-carboxamide]", "IC50": 2.68},
      {"compound": "COc1cc(C(=O)Nc2cc(N3CCOC[C@@H]3C)nc(N3CCOC[C@@H]3C)n2)ccn1", "note": "[Example 7, N-[2,6-Bis[(3S)-3-methylmorpholin-4-yl]pyrimidin-4-yl]-2-methoxy-pyridine-4-carboxamide]", "IC50": 2.84},
      {"compound": "CC(=O)Nc1ccc(C(=O)Nc2cc(N3CCOC[C@@H]3C)nc(N3CCOC[C@@H]3C)n2)cn1", "note": "[Example 8, 6-Acetamido-N-[2,6-bis[(3S)-3-methylmorpholin-4-yl]pyrimidin-4-yl]pyridine-3-carboxamide]", "IC50": 1.78},
      {"compound": "COc1ccccc1C(=O)Nc1cc(N2CCOC[C@@H]2C)nc(N2CCOC[C@@H]2C)n1", "note": "[Example 9, N-[2,6-Bis[(3S)-3-methylmorpholin-4-yl]pyrimidin-4-yl]-2-methoxy-benzamide]", "IC50": 0.894},
      {"compound": "CC(=O)Nc1cc(C(=O)Nc2cc(N3CCOC[C@@H]3C)nc(N3CCOC[C@@H]3C)n2)ccn1", "note": "[Example 10, 2-Acetamido-N-[2,6-bis[(3S)-3-methylmorpholin-4-yl]pyrimidin-4-yl]pyridine-4-carboxamide]", "IC50": 26.4},
      {"compound": "COc1ccc(C(=O)Nc2cc(N3CCOC[C@@H]3C)nc(N3CCOC[C@@H]3C)n2)cc1F", "note": "[Example 11, N-[2,6-Bis[(3S)-3-methylmorpholin-4-yl]pyrimidin-4-yl]-3-fluoro-4-methoxy-benzamide]", "IC50": 3.58},
      {"compound": "COc1cc(C(=O)Nc2nc(N3CCOC[C@@H]3C)cc(N3CCOC[C@@H]3C)n2)ccn1", "note": "[Example 12, N-[4,6-Bis[(3S)-3-methylmorpholin-4-yl]pyrimidin-2-yl]-2-methoxy-pyridine-4-carboxamide]", "IC50": 4},
      {"compound": "CC(=O)Nc1ccc(C(=O)Nc2nc(N3CCOC[C@@H]3C)cc(N3CCOC[C@@H]3C)n2)cn1", "note": "[Example 13, 6-Acetamido-N-[4,6-bis[(3S)-3-methylmorpholin-4-yl]pyrimidin-2-yl]pyridine-3-carboxamide]", "IC50": 1.58},
      {"compound": "COc1ccccc1C(=O)Nc1nc(N2CCOC[C@@H]2C)cc(N2CCOC[C@@H]2C)n1", "note": "[Example 14, N-[4,6-Bis[(3S)-3-methylmorpholin-4-yl]pyrimidin-2-yl]-2-methoxy-benzamide]", "IC50": 0.886},
      {"compound": "CC(=O)Nc1cc(C(=O)Nc2nc(N3CCOC[C@@H]3C)cc(N3CCOC[C@@H]3C)n2)ccn1", "note": "[Example 15, 2-Acetamido-N-[4,6-bis[(3S)-3-methylmorpholin-4-yl]pyrimidin-2-yl]pyridine-4-carboxamide]", "IC50": 9.55},
      {"compound": "COc1ccc(C(=O)Nc2nc(N3CCOC[C@@H]3C)cc(N3CCOC[C@@H]3C)n2)cc1F", "note": "[Example 16, N-[4,6-Bis[(3S)-3-methylmorpholin-4-yl]pyrimidin-2-yl]-3-fluoro-4-methoxy-benzamide]", "IC50": 2.47},
      {"compound": "C[C@H]1COCCN1c1cc(NC(=O)c2ccc(NC(=O)Nc3ccccc3)cc2)nc(N2CCOC[C@@H]2C)n1", "note": "[Example 17, N-[2,6-Bis[(3S)-3-methylmorpholin-4-yl]pyrimidin-4-yl]-4-(phenylcarbamoylamino)benzamide]", "IC50": 9.39},
      {"compound": "C[C@H]1COCCN1c1cc(N2CCOC[C@@H]2C)nc(NC(=O)c2ccc(NC(=O)Nc3ccccc3)cc2)n1", "note": "[Example 18, N-[4,6-Bis[(3S)-3-methylmorpholin-4-yl]pyrimidin-2-yl]-4-(phenylcarbamoylamino)benzamide]", "IC50": 1.12},
      {"compound": "COc1ccc(C(=O)Nc2cc(N3CCOC[C@@H]3C)nc(N3CCOC[C@@H]3C)n2)cc1", "note": "[Example 19, N-[2,6-Bis[(3S)-3-methylmorpholin-4-yl]pyrimidin-4-yl]-4-methoxy-benzamide]", "IC50": 0.181},
      {"compound": "C[C@@H]1CN(c2nc(CS(C)(=O)=O)cc(N3CCOC[C@@H]3C)n2)C[C@H](C)O1", "note": "[Example 20, 2-[(2R,6S)-2,6-Dimethylmorpholin-4-yl]-4-[(3S)-3-methylmorpholin-4-yl]-6-(methylsulfonylmethyl)pyrimidine]", "IC50": 1.65},
      {"compound": "C[C@H]1COCCN1c1cc(CS(C)(=O)=O)nc(N2CCCC(O)C2)n1", "note": "(stereo partly drawn) [Example 21, 1-[4-[(3S)-3-Methylmorpholin-4-yl]-6-(methylsulfonylmethyl)pyrimidin-2-yl]piperidin-3-ol]", "IC50": 2.3},
      {"compound": "C[C@H]1COCCN1c1cc(CS(C)(=O)=O)nc(N2CCOCC2)n1", "note": "[Example 22, 4-[(3S)-3-methylmorpholin-4-yl]-6-(methylsulfonylmethyl)-2-morpholin-4-yl-pyrimidine]", "IC50": 1.7},
      {"compound": "C[C@H]1COCCN1c1cc(CS(C)(=O)=O)nc(-c2cnc3[nH]ccc3c2)n1", "note": "[Example 23, 3-[4-[(3S)-3-Methylmorpholin-4-yl]-6-(methylsulfonylmethyl)pyrimidin-2-yl]-5,7-diazabicyclo[4.3.0]nona-1,3,5,8-tetraene]", "IC50": 0.0377},
      {"compound": "C[C@H]1COCCN1c1cc(CS(C)(=O)=O)nc(-c2ccc3[nH]ccc3c2)n1", "note": "[Example 24]", "IC50": 0.303},
      {"compound": "C[C@@H]1COCCN1c1cc(CS(C)(=O)=O)nc(-c2ccc3[nH]ccc3c2)n1", "note": "[Example 25, 5-[4-[(3R)-3-methylmorpholin-4-yl]-6-(methylsulfonylmethyl)pyrimidin-2-yl]-1H-indole]", "IC50": 0.385},
      {"compound": "CCC(C)S(=O)(=O)Cc1cc(N2CCOC[C@@H]2C)nc(-c2ccc3[nH]ccc3c2)n1", "note": "(stereo partly drawn) [Example 26, 5-[4-(Butan-2-ylsulfonylmethyl)-6-[(3S)-3-methylmorpholin-4-yl]pyrimidin-2-yl]-1H-indole]", "IC50": 1.38},
      {"compound": "CCC(C)[S+]([O-])Cc1cc(N2CCOC[C@H]2C)nc(-c2ccc3[nH]ccc3c2)n1", "note": "(stereo partly drawn) [Example 27, 5-[4-(butan-2-ylsulfinylmethyl)-6-[(3R)-3-methylmorpholin-4-yl]pyrimidin-2-yl]-1H-indole]", "IC50": 1.17},
      {"compound": "CC(C)S(=O)(=O)Cc1cc(N2CCOC[C@H]2C)nc(-c2ccc3[nH]ccc3c2)n1", "note": "[Example 28, 5-[4-[(3R)-3-methylmorphlin-4-yl]-6-(propan-2-ylsulfonylmethyl)pyrimidin-2-yl]-1H-indole]", "IC50": 0.626},
      {"compound": "CCS(=O)(=O)Cc1cc(N2CCOC[C@H]2C)nc(-c2ccc3[nH]ccc3c2)n1", "note": "[Example 29, 5-[4-(ethylsulfonylmethyl)-6-[(3R)-3-methylmorpholin-4-yl]pyrimidin-2-yl]-1H-indole]", "IC50": 0.351},
      {"compound": "C[C@H]1COCCN1c1cc(CS(C)(=O)=O)nc(Nc2cc[nH]n2)n1", "note": "[Example 30, 4-[(3S)-3-Methylmorpholin-4-yl]-6-(methylsulfonylmethyl)-N-(1H-pyrazol-3-yl)pyrimidin-2-amine]", "IC50": 0.897},
      {"compound": "C[C@H]1COCCN1c1cc(CS(C)(=O)=O)nc(-c2ccc(-c3cn[nH]c3)cc2)n1", "note": "[Example 31, 4-[(3S)-3-Methylmorpholin-4-yl]-6-(methylsulfonylmethyl)-2-[4-(1H-pyrazol-4-yl)phenyl]pyrimidine]", "IC50": 0.99},
      {"compound": "C[C@H]1COCCN1c1cc(CS(C)(=O)=O)nc(-c2cccc(-c3cn[nH]c3)c2)n1", "note": "[Example 32, 4-[(3S)-3-Methylmorpholin-4-yl]-6-(methylsulfonylmethyl)-2-[3-(1H-pyrazol-4-yl)phenyl]pyrimidine]", "IC50": 0.437},
      {"compound": "C[C@H]1COCCN1c1cc(CS(C)(=O)=O)nc(-c2ccc3[nH]cc(C(N)=O)c3c2)n1", "note": "[Example 33, 5-[4-[(3S)-3-Methylmorpholin-4-yl]-6-(methylsulfonylmethyl)pyrimidin-2-yl]-1H-indole-3-carboxamide]", "IC50": 0.154},
      {"compound": "C[C@H]1COCCN1c1cc(CS(C)(=O)=O)nc(-c2cnc(-c3cn[nH]c3)s2)n1", "note": "[Example 34, 4-[(3S)-3-Methylmorpholin-4-yl]-6-(methylsulfonylmethyl)-2-[2-(1H-pyrazol-4-yl)-1,3-thiazol-5-yl]pyrimidine]", "IC50": 0.573}
    ]}
  ]
}
